Measured values: US6127357A, “N-((phenyl, benzodioxinyl or N-heteroarylpiperazinyl)alkyl)-N-(N-heteroaryl)substituted carboxamides” (John Wyeth & Brother, Ltd., priority 1991, dated 2000)

Experiments:
5-HT1A receptor [1] = biological target: T1, 5-HT1A receptor (Rattus norvegicus, UniProt P19327); assay: 5-HT1A receptor binding activity in rat hippocampal membrane homogenate
T1 construct: rat hippocampal membrane homogenate; from tissue; host or cells: rat hippocampus membrane homogenate
T1 sequence (P19327 1-422): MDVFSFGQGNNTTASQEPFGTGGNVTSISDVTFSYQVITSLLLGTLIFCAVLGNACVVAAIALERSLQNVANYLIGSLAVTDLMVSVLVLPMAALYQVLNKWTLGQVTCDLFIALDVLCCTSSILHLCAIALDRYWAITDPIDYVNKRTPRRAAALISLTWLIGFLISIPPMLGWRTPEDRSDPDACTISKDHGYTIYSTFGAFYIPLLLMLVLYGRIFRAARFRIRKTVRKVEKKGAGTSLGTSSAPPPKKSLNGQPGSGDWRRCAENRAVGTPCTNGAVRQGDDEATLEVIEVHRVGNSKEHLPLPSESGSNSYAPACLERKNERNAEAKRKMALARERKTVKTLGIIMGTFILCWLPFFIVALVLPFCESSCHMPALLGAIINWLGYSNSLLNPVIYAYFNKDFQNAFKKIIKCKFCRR
Procedure: The compounds of the invention were tested for 5-HT1A receptor binding activity in rat hippocampal membrane homogenate by the method of B S Alexander and M D Wood, J Pharm Pharmacol, 1988, 40, 888-891.

5-HT1A receptor [2] = biological target: T2, 5-HT1A receptor (Cavia porcellus, UniProt A0A286Y074); assay: 5-HT1A receptor antagonism: antagonism of 5-carboxamidotryptamine in the guinea-pig ileum in vitro
T2 construct: guinea-pig ileum in vitro; from tissue; host or cells: guinea-pig ileum
T2 sequence (A0A286Y074 1-421): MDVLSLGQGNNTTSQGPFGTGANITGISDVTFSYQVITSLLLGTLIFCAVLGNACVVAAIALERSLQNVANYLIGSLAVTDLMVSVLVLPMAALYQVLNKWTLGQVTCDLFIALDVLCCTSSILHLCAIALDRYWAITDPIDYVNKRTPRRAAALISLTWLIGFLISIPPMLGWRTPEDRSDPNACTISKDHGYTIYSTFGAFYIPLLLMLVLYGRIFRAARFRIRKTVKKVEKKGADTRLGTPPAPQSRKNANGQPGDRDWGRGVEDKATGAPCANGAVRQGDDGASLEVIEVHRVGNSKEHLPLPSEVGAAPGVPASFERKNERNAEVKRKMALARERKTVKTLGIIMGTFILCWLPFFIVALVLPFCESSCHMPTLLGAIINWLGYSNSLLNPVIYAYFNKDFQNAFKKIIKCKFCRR
Procedure: The compounds are tested for 5-HT1A receptor antagonism activity in a test involving the antagonism of 5-carboxamidotryptamine in the guinea-pig ileum in vitro (based upon the procedure of Fozard et al, Br J Pharmac, 1985, 86, 601P).

SMILES	IC50 (5-HT1A receptor [1])	Kb (5-HT1A receptor [2]; read-out: pA2, 5-HT1A receptor antagonism (converted))	pA2, 5-HT1A receptor antagonism (5-HT1A receptor [2])
COc1ccccc1N1CCN(CCN(C(=O)NC2CCCCC2)c2ccccn2)CC1 [Example 4, N-Cyclohexyl-N-(2-(1-(4-(2-methoxyphenyl)piperazinyl))ethyl)-N-(2-pyridinyl)urea]	5.8 nM	15.8 nM	–
O=C(C1CCCCC1)N(CCN1CCN(c2cccc3c2OCCO3)CC1)c1ccccn1 [Example 17, N-(2-(1-(4-(2,3-Dihydro-1,4-benzodioxin-5-yl)piperazinyl))ethyl)-N-(2-pyridinyl)cyclohexanecarboxamide]	3 nM	–	9.8
